In patent US5013743A, “Selective antibacterial agent against campytobacter” (Takeda Chemical Industries, Ltd., priority 1989, dated 1991):
Converted amounts (≈) assume the structure as drawn.

Tests used:
Assay type in all cases: cell-based
C. pylori NCTC 11916 = experiment: MIC, agar-plate dilution method, test strain A; settings: Helicobacter pylori, NCTC11916, 72 h, Brucella agar, 37° C., 3 days
Description: (§1) The minimum inhibitory concentration (MIC) of each compound was determined by the agar-plate dilution method based on the standard method advocated by Japan Society of Chemotherapy [cf: Chemotherapy, Jan. '81, p. 76]. The volume of agar medium per plate was 20 ml. Each of the test compounds was dissolved in dimethylsulfoxide at a concentration of 80 mg/ml or 40 mg/ml, and diluted 10 times with sterile distilled water. Furthermore, the aqueous solution of 8 mg/ml or 4 mg/ml was diluted serially 2-fold with sterile distilled water. To 2 ml of the diluted solution was added 18 ml of Brucella agar (BBL Microbiology Systems, Becton Dickinson and Co., Cockeysville, Md. 21030) containing 7% defibrinated horse blood (manufactured by Nippon Bio-supp. Center) and mixed well. Test strains frozen at -80° C. in Brucella broth (BBL) containing 10% horse serum were thawed and inoculated on a Brucella agar slant medium containing 7% defibrinated horse blood. The medium was incubated anaerobically at 37° C. for 3 days in a jar containing a piece of sponge sufficiently impregnated with water and Campy Pak™ (BBL). The organisms grown on the slant medium were collected and suspended in a Brucella broth to correspond to the turbidity of about 10^8 CFU/ml of common bacteria. One platinum loop of inoculum was streaked on the medium plates for determination. The plates were incubated under the same conditions as described above.

C. pylori PCL 56 = experiment: MIC, agar-plate dilution method, test strain C; settings: Helicobacter pylori, PCL56, 72 h, Brucella agar, 37° C., 3 days
Description: as §1, with “above. […] The results are shown in Table 2 and Table 3. | C: C. pylori PCL 56” for “above.”

[1] = tested on: A. calcoaceticus IFO 13006; experiment: MIC, standard agar-plate dilution method, aerobic common bacteria; settings: Acinetobacter calcoaceticus, IFO13006
From the text: (§2) Antibacterial activities of some compounds of the present invention against aerobic common bacteria were examined.

C. diphtheriae Tront = experiment: as above; settings: Corynebacterium diphtheriae
From the text: as §2

E. cloacae IFO 12937 = experiment: as above; settings: Enterobacter cloacae, IFO12937
From the text: as §2

E. cloacae TN 583 = experiment: as above; settings: Enterobacter cloacae, TN583
From the text: as §2

E. coli 0-111 = experiment: as above; settings: Escherichia coli, 0111
From the text: as §2

E. coli NIHJ JC-2 = experiment: as above; settings: Escherichia coli, NIHJJC2
From the text: as §2

E. coli T 7 = experiment: as above; settings: Escherichia coli, T7
From the text: as §2

K. pneumoniae DT = experiment: as above; settings: Klebsiella pneumoniae
From the text: as §2

M. morganii IFO 3168 = experiment: as above; settings: Morganella morganii, IFO3168
From the text: as §2

P. aeruginosa B 184 = experiment: as above; settings: Pseudomonas aeruginosa, B184
From the text: as §2

P. aeruginosa IFO 3455 = experiment: as above; settings: Pseudomonas aeruginosa, IFO3455
From the text: as §2

P. aeruginosa P 9 = experiment: as above; settings: Pseudomonas aeruginosa, P9
From the text: as §2

P. aeruginosa U 31 = experiment: as above; settings: Pseudomonas aeruginosa, U31
From the text: as §2

P. vulgaris IFO 3988 = experiment: as above; settings: Proteus vulgaris, IFO3988
From the text: as §2

S. aureus 1840 = experiment: as above; settings: Staphylococcus aureus
From the text: as §2

S. aureus 308 A-1 = experiment: as above; settings: Staphylococcus aureus, 308A1
From the text: as §2

S. aureus C 260 = experiment: as above; settings: Staphylococcus aureus, C260
From the text: as §2

S. aureus FDA 209P = experiment: as above; settings: Staphylococcus aureus, FDA209P
From the text: as §2

S. aureus J-108 = experiment: as above; settings: Staphylococcus aureus, J108
From the text: as §2

S. aureus N-241 = experiment: as above; settings: Staphylococcus aureus, N241
From the text: as §2

S. aureus P 114 = experiment: as above; settings: Staphylococcus aureus, P114
From the text: as §2

S. marcecens B 315 = experiment: as above
From the text: as §2

S. marcecens IFO 12648 = experiment: as above
From the text: as §2

S. mitis America = experiment: as above; settings: Streptococcus mitis
From the text: as §2

S. pyogenes S-8 = experiment: as above; settings: Streptococcus pyogenes, S8
From the text: as §2

aerobic bacteria = experiment: Antibacterial action against aerobic bacteria (Table 4, summary in words); settings: summary of Table 4
From the text: as §2

Structure (SMILES) | MIC (C. pylori NCTC 11916) [µg/mL] | MIC (C. pylori PCL 56) [µg/mL] | MIC [1] [µg/mL] | MIC (C. diphtheriae Tront) [µg/mL] | MIC (E. cloacae IFO 12937) [µg/mL] | MIC (E. cloacae TN 583) [µg/mL] | MIC (E. coli 0-111) [µg/mL] | MIC (E. coli NIHJ JC-2) [µg/mL] | MIC (E. coli T 7) [µg/mL] | MIC (K. pneumoniae DT) [µg/mL] | MIC (M. morganii IFO 3168) [µg/mL] | MIC (P. aeruginosa B 184) [µg/mL] | MIC (P. aeruginosa IFO 3455) [µg/mL] | MIC (P. aeruginosa P 9) [µg/mL] | MIC (P. aeruginosa U 31) [µg/mL] | MIC (P. vulgaris IFO 3988) [µg/mL] | MIC (S. aureus 1840) [µg/mL] | MIC (S. aureus 308 A-1) [µg/mL] | MIC (S. aureus C 260) [µg/mL] | MIC (S. aureus FDA 209P) [µg/mL] | other results
Cc1c(OCC(F)(F)F)ccnc1CSc1nc2ccccc2[nH]1 [Compound 6] | 6.25 (≈ 17.7 µM) | 6.25 (≈ 17.7 µM) | > 400 | > 400 | > 400 | > 400 | 40 (≈ 113 µM) | > 400 | > 400 | > 400 | > 400 | > 400 | > 400 | > 400 | > 400 | > 400 | > 400 | > 400 | > 400 | > 400 | MIC (S. aureus J-108): > 400 µg/mL; MIC (S. aureus N-241): > 400 µg/mL; MIC (S. aureus P 114): > 400 µg/mL; MIC (S. marcecens B 315): > 400 µg/mL; MIC (S. marcecens IFO 12648): > 400 µg/mL; MIC (S. mitis America): > 400 µg/mL; MIC (S. pyogenes S-8): > 400 µg/mL; antibacterial action against the aerobic bacteria (aerobic bacteria): did not possess at all antibacterial action
COc1ccc2[nH]c([S+]([O-])Cc3ncc(C)c(OC)c3C)nc2c1 (stereo not drawn) [Compound 2] | 25 (≈ 72.4 µM) | 12.5 (≈ 36.2 µM) | > 400 | > 400 | > 400 | > 400 | > 400 | > 400 | 40 (≈ 116 µM) | > 400 | > 400 | > 400 | > 400 | > 400 | > 400 | > 400 | > 400 | > 400 | > 400 | > 400 | MIC (S. aureus J-108): > 400 µg/mL; MIC (S. aureus N-241): > 400 µg/mL; MIC (S. aureus P 114): > 400 µg/mL; MIC (S. marcecens B 315): > 400 µg/mL; MIC (S. marcecens IFO 12648): > 400 µg/mL; MIC (S. mitis America): > 400 µg/mL; MIC (S. pyogenes S-8): > 400 µg/mL; antibacterial action against the aerobic bacteria (aerobic bacteria): did not possess at all antibacterial action
Cc1c(OCC(F)(F)F)ccnc1C[S+]([O-])c1nc2ccccc2[nH]1 (stereo not drawn) [Compound 1] | 12.5 (≈ 33.8 µM) | 6.25 (≈ 16.9 µM) | > 400 | > 400 | > 400 | > 400 | > 400 | > 400 | > 400 | > 400 | > 400 | > 400 | > 400 | > 400 | > 400 | > 400 | > 400 | > 400 | > 400 | > 400 | MIC (S. aureus J-108): > 400 µg/mL; MIC (S. aureus N-241): > 400 µg/mL; MIC (S. aureus P 114): > 400 µg/mL; MIC (S. marcecens B 315): > 400 µg/mL; MIC (S. marcecens IFO 12648): > 400 µg/mL; MIC (S. mitis America): > 400 µg/mL; MIC (S. pyogenes S-8): > 400 µg/mL; antibacterial action against the aerobic bacteria (aerobic bacteria): did not possess at all antibacterial action
